Values quoted from earlier work in patent US7745641B2, “Nitrogen-containing heterocyclic compound” (Kyowa Hakko Kirin Co., Ltd., priority 2005, dated 2010).

Key:
[1] = test system: human-tumor-transplant rat models; details: cited from earlier work
[2] = test system: human-tumor-transplant mouse models; details: cited from earlier work

## Cc1cc(Nc2cc(N3CCN(C)CC3)nc(Sc3ccc(NC(=O)C4CC4)cc3)n2)n[nH]1 [VX-680]
[1]
  antitumor activity: exhibits an antitumor activity
[2]
  antitumor activity: exhibits an antitumor activity
